Source: US20100261682A1, “Method and Means for the Treatment of Cachexia” (Bioneris AB, priority 2007, published 2010)

Legend:
Format in all cases: in vivo, NMRI mice
[1] = test system: gastrocnemius muscle protein synthesis and degradation; test: Protein synthesis and degradation in gastrocnemius muscle of MAC16 tumour-bearing mice; conditions: 40 mg/kg s.c., 3 times per day; p<0.001 vs control
Experimental: (§1) Administration of alpha-trinositol. Mice (n=6) bearing the MAC16 tumour were treated with AT (40 mg/kg) s.c., 3 times per day, for 5 days, while a control group received PBS. Protein synthesis and degradation were determined by the incorporation and release of L-[2,6-^3H]phenylalanine, as described in Smith et al., Cancer Res., 2005; 65:277-83. On the fourth day of treatment half of the group administered 0.4 mmol/L L-[2,6-^3H]phenylalanine in PBS (100 μl) by i.p. administration.
Protein analysis. After 24 h the animals were terminated and the gastrocnemius muscle was removed, washed with PBS and RPMI 1640, and the release of radioactivity during incubation for 2 h in RPMI 1640 was determined. Protein bound activity was determined by homogenising the muscles in 2% perchloric acid, and determining the radioactivity in the precipitate. Protein degradation was calculated by dividing the amount of radioactivity released into the medium over a 2 h period by the specific activity of the protein-bound radioactivity. To determine protein synthesis gastrocnemius muscles were incubated for 2 h in RMPI 1640, without phenol red, in the presence of L-[2,6-^3H]phenylalanine (37 MBq), and under an atmosphere of O2/CO2 (19:1). […] The rate of protein synthesis was calculated by dividing the protein-bound radioactivity by the acid-soluble material.

eIF2α = test: Western blot of gastrocnemius muscle: phospho eIF2α/total eIF2α; conditions: 40 mg/kg; tumour-bearing animals
Experimental: as §1
(§2) Western blot analysis Gastrocnemius muscle (10 mg) was homogenised in Phosphosafe™ Extraction Reagent (500 μl) and centrifuged at 15000 g for 15 min. Samples of the cytosolic proteins (5 μg) were loaded on either a 10% (mTOR, myosin, eIF4E and eIF4G) 12% (PKR, eIF2α and actin) or 15% (4E-BP1) sodium dodecylsulphate-polyacrylamide gel (SDS-PAGE) and electrophoresed at 180 V for approximately 1 h. The extent of phosphorylation of 4E-BP1, and the association of 4E-BP1 and eIF4G with eIF4E was determined by Western blotting when eIF4E was extracted from the muscle samples by m^7GTP-Sepharose 4B-affinity binding, as previously described Eley ey al., Biochem J., 2007; 407:113-20, by loading 20 μg of protein. […] Blots were scanned by a densitometer to quantify differences.

[2] = test system: 4E-BP1 associated with eIF4E; test: Western blot after m7GTP-Sepharose extraction: 4E-BP1 associated with eIF4E; conditions: 40 mg/kg
Experimental: as §1, §2

O=P(O)(O)O[C@@H]1[C@H](OP(=O)(O)O)[C@H](O)[C@@H](O)[C@H](O)[C@H]1OP(=O)(O)O [alpha-trinositol, 1-D-Myo-inositol 1,2,6-triphosphate]
decrease in protein degradation in the gastrocnemius muscle [1]: 20%
increase of protein synthesis in the gastrocnemius muscle [1]: 50%
expression of phospho eIF2α (ratio to total eIF2α) (eIF2α): significant decrease
tumour-induced increase of 4E-BP1 associated with eIF4E [2]: completely attenuated
